Reference: US4073902A, “O-Substituted 7β-amino-3-cephem-3-ol-4-carboxylic acid compounds” (priority 1972, dated 1978)

Key:
[1] = system: Diplococcus pneumoniae 111/84; assay: oral ED50, systemic infection in mice; settings: Streptococcus pneumoniae, 111/84, in Mus musculus, read-out: oral ED50
[2] = system: S. pyogenes Aronson; assay: oral ED50, systemic infection in mice; settings: Streptococcus pyogenes, in Mus musculus, read-out: oral ED50
[3] = system: E. coli 9; assay: oral ED50, systemic infection in mice; settings: Escherichia coli, 9, in Mus musculus, read-out: oral ED50
From the text: (§4) **two doses; the first administered immediately after infection, the

[4] = system: proteus morganii 2359; assay: oral ED50, systemic infection in mice; settings: Morganella morganii, 2359, in Mus musculus, read-out: oral ED50
[5] = system: P. rettgeri 856; assay: oral ED50, systemic infection in mice; settings: Providencia rettgeri, 856, in Mus musculus, read-out: oral ED50
[6] = system: E. coli 5; assay: oral ED50, systemic infection in mice; settings: Escherichia coli, 5, in Mus musculus, read-out: oral ED50
From the text: as §4

[7] = system: Pasteurella multocid 341; assay: oral ED50, systemic infection in mice; settings: Pasteurella, 341, in Mus musculus, read-out: oral ED50
[8] = system: E. coli 1239/19; assay: oral ED50, systemic infection in mice; settings: Escherichia coli, 1239/19, in Mus musculus, read-out: oral ED50
From the text: as §4

[9] = system: S. aureus 2999 i^+ p^+; assay: oral ED50, systemic infection in mice; settings: Staphylococcus aureus, in Mus musculus, read-out: oral ED50
From the text: (§5) *single dose of antibiotic administered immediately after infection

[10] = system: E. coli 2; assay: oral ED50, systemic infection in mice; settings: Escherichia coli, 2, in Mus musculus, read-out: oral ED50
From the text: as §4

[11] = system: E. coli 2018 R^+TEM; assay: oral ED50, systemic infection in mice; settings: Escherichia coli, in Mus musculus, read-out: oral ED50
From the text: as §4

[12] = system: S. aureus 102 (methicillin res.); assay: oral ED50, systemic infection in mice; settings: Staphylococcus aureus, in Mus musculus, read-out: oral ED50
From the text: as §5

[13] = system: Klebsiella pneumoniae 327; assay: oral ED50, systemic infection in mice; settings: Klebsiella pneumoniae, 327, in Mus musculus, read-out: oral ED50
[14] = system: P. vulgaris 1076; assay: oral ED50, systemic infection in mice; settings: Proteus vulgaris, 1076, in Mus musculus, read-out: oral ED50
[15] = system: E. coli 9-25.1.; assay: oral ED50, systemic infection in mice; settings: Escherichia coli, 925.1., in Mus musculus, read-out: oral ED50
From the text: as §4

[16] = system: Staphylococcus aureus 10B; assay: oral ED50, systemic infection in mice; settings: in Mus musculus, read-out: oral ED50
From the text: as §5

[17] = system: Enterobacter cloacae P 99; assay: oral ED50, systemic infection in mice; settings: P99, in Mus musculus, read-out: oral ED50
[18] = system: E. coli 2018; assay: oral ED50, systemic infection in mice; settings: Escherichia coli, 2018, in Mus musculus, read-out: oral ED50
From the text: as §4

[19] = system: Serratia marcescens 344; assay: oral ED50, systemic infection in mice; settings: Serratia marcescens, 344, in Mus musculus, read-out: oral ED50
[20] = system: S. typhimurium 277; assay: oral ED50, systemic infection in mice; settings: Salmonella enterica, in Mus musculus, read-out: oral ED50
[21] = system: Salmonella typhimurium 273; assay: oral ED50, systemic infection in mice; settings: Salmonella enterica, in Mus musculus, read-out: oral ED50
From the text: as §4

[22] = system: Pseudomonas aeruginosa 799; assay: oral ED50, systemic infection in mice; settings: Pseudomonas aeruginosa, 799, in Mus musculus, read-out: oral ED50
[23] = system: Shigella flexneri 11836; assay: oral ED50, systemic infection in mice; format: in vivo, Shigella flexneri; female MF 2 mice; settings: p.o., 2 doses
[24] = system: E. coli 16; assay: oral ED50, systemic infection in mice; settings: Escherichia coli, 16, in Mus musculus, read-out: oral ED50
From the text: as §4

[25] = system: Streptococcus pyogenes 38; assay: oral ED50, systemic infection in mice; settings: Streptococcus pyogenes, 38, in Mus musculus, 3 h, read-out: oral ED50
[26] = system: Escherichia coli 205; assay: oral ED50, systemic infection in mice; settings: Escherichia coli, 205, in Mus musculus, read-out: oral ED50
[27] = system: E. coli 205 R^+TEM; assay: oral ED50, systemic infection in mice; settings: Escherichia coli, in Mus musculus, read-out: oral ED50
From the text: as §4

[28] = system: K. pneumoniae 329; assay: oral ED50, systemic infection in mice; settings: Klebsiella pneumoniae, 329, in Mus musculus, read-out: oral ED50
[29] = system: P. mirabilis 774; assay: oral ED50, systemic infection in mice; settings: Proteus mirabilis, 774, in Mus musculus, read-out: oral ED50
[30] = in vivo; settings: mouse, in vivo
From the text: (§1) ^a calcultated according to Miller-Tainter ± standard error (Proc.
(§2) ^b calculated according to the Probit-method with 95% confidence
(§3) limits (Goulden A., Methods of Statistical Analysis, J. Wiley and Sons, […]

[31] = system: mice; assay: in vivo; settings: mice; in words, compared with II and IV
From the text: as §1, §2, §3

[32] = solubility in urin; format: physicochemical; settings: in words, compared with compound II
[33] = bactericidal activity; settings: in words, compared with cephradin (III) and cephalexin (IV)
[34] = system: systemic infections due to various bacterial strains; settings: female MF 2 mice; in words, compared with II, III, IV

| Compound | ED50 [1] | ED50 [2] | ED50 [3] | ED50 [4] | ED50 [5] | ED50 [6] | ED50 [7] | ED50 [8] | ED50 [9] | ED50 [10] | ED50 [11] | ED50 [12] | ED50 [13] | ED50 [14] | ED50 [15] | ED50 [16] | ED50 [17] | ED50 [18] | ED50 [19] | ED50 [20] | further results |
| --- | --- | --- | --- | --- | --- | --- | --- | --- | --- | --- | --- | --- | --- | --- | --- | --- | --- | --- | --- | --- | --- |
| CC1=C(C(=O)O)N2C(=O)[C@@H](NC(=O)[C@H](N)c3ccccc3)[C@H]2SC1 [cephalexin] | 30 mg/kg | 6.3 mg/kg | 90 mg/kg | > 1000 mg/kg | 15 to 30 mg/kg | 28 mg/kg | 66 mg/kg | 20 mg/kg | 85 mg/kg | > 1000 mg/kg | 25 mg/kg | 120 mg/kg | 105 mg/kg | 45 mg/kg | > 300 mg/kg | 6.6 mg/kg | > 300 mg/kg | 13 mg/kg | > 300 mg/kg | 100 mg/kg | ED50 [21]: 140 mg/kg; ED50 [22]: > 1000 mg/kg; ED50 [23]: 7 mg/kg; ED50 [24]: > 300 mg/kg; ED50 [25]: 6 mg/kg; ED50 [26]: 40 mg/kg; ED50 [27]: 40 mg/kg; ED50 [28]: 47 mg/kg; ED50 [29]: 80 mg/kg |
| CC1=C(C(=O)O)N2C(=O)[C@@H](NC(=O)[C@H](N)C3=CCC=CC3)[C@H]2SC1 [cephradine] | 40 mg/kg | 5.5 mg/kg | ≥ 300 mg/kg | > 1000 mg/kg | ≥ 30 mg/kg | > 30 mg/kg | 110 mg/kg | ~25 mg/kg | 32 mg/kg | > 300 mg/kg | 38 mg/kg | 76 mg/kg | 250 mg/kg | 80 mg/kg | > 300 mg/kg | 6 mg/kg | > 1000 mg/kg | 13 mg/kg | > 1000 mg/kg | 110 mg/kg | ED50 [21]: 80 mg/kg; ED50 [22]: > 300 mg/kg; ED50 [23]: 11 mg/kg; ED50 [24]: > 300 mg/kg; ED50 [25]: 8 mg/kg; ED50 [26]: 52 mg/kg; ED50 [27]: 16 mg/kg; ED50 [28]: 120 mg/kg; ED50 [29]: ~50 mg/kg |
| COC1=C(C(=O)O)N2C(=O)[C@@H](NC(=O)[C@H](N)c3ccccc3)[C@H]2SC1 [compound II] | 16 mg/kg | 2.5 mg/kg | 210 mg/kg | > 300 mg/kg | 14 mg/kg | 13 mg/kg | ~20 mg/kg | 12 mg/kg | 210 mg/kg | > 1000 mg/kg | 38 mg/kg | 100 mg/kg | 75 mg/kg | 25 mg/kg | > 300 mg/kg | 6 mg/kg | > 300 mg/kg | 15 mg/kg | > 1000 mg/kg | 65 mg/kg | LD50 ([30]; ip): 3800 ± 290 mg/kg; LD50 ([30]; po): > 6000 mg/kg; ED50 [21]: 60 mg/kg; ED50 [22]: > 300 mg/kg; ED50 [23]: 20 mg/kg; ED50 [24]: > 300 mg/kg; ED50 [25]: 7.5 mg/kg; ED50 [26]: 22 mg/kg; ED50 [27]: 48 mg/kg; ED50 [28]: 35 mg/kg; ED50 [29]: 54 mg/kg |
| COC1=C(C(=O)O)N2C(=O)[C@@H](NC(=O)[C@H](N)C3=CCC=CC3)[C@H]2SC1 [compound I] | 8.5 mg/kg | 1 mg/kg | ~30 mg/kg | > 300 mg/kg | 6.8 mg/kg | 7.8 mg/kg | 17 mg/kg | 4 mg/kg | 25 mg/kg | ~140 mg/kg | 14 mg/kg | 17.5 mg/kg | 40 mg/kg | 20 mg/kg | ≥ 300 mg/kg | 3.3 mg/kg | > 300 mg/kg | 3 mg/kg | > 300 mg/kg | 30 mg/kg | LD50 ([30]; ip): 7090 mg/kg; LD50 ([30]; po): > 6000 mg/kg; acute toxicity [31]: more favourable as the acute toxicity of compounds II and IV; solubility in urin [32]: higher as compared to compound II; ED50 [21]: 30 mg/kg; bactericidal activity [33]: surprisingly stronger bactericidal activity as compared to cephradin (III) and cephalexin (IV); ED50 [22]: > 300 mg/kg; ED50 [23]: 25 mg/kg; ED50 [24]: > 300 mg/kg; ED50 [25]: 1 mg/kg; ED50 [26]: 9.5 mg/kg; ED50 [27]: 7.3 mg/kg; ED50 [28]: 17 mg/kg; ED50 [29]: 16 mg/kg; chemotherapeutic activity [34]: surprisingly stronger chemotherapeutic activity |
